Read-outs that look alike come from different tables or passages of the source.
Tests used:
[1] = molecular target: T1, Recombinant STAT6 protein (STAT6 (W123-T658)) (Homo sapiens, UniProt P42226); assay: STAT6 Fluorescence Polarization (FP) Assay; type: binding; details: probe 5-FAM-Ap[…]-NH2 2 nM, 45-minute incubation
T1 construct: Recombinant STAT6 protein (STAT6 (W123-T658))
T1 sequence (P42226 123-658): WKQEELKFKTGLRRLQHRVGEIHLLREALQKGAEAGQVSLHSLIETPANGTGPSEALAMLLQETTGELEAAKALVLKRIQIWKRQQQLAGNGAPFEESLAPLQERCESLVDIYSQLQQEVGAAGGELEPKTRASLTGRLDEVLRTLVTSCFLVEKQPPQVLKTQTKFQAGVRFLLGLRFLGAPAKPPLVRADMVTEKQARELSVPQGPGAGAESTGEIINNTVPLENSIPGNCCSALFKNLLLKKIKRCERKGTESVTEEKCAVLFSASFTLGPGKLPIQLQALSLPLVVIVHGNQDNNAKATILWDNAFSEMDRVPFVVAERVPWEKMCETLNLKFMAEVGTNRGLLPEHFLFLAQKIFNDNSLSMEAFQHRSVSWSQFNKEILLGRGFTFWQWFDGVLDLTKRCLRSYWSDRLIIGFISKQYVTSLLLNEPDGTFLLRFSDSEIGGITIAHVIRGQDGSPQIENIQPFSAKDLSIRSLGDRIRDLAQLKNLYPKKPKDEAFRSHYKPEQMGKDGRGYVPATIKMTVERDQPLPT
In short: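 Protein-probe mix (250 nM STAT6 W123-T658, 2 nM 5-FAM-pTyr peptide) in 10 mM HEPES pH 7.4, 50 mM NaCl, 1 mM EDTA, 0.05% Tween 20, 2 mM DTT; added to compound dilution series, 1% DMSO final; 45 min RT; FP read; IC50 via nonlinear regression.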

[2] = molecular target: T2, Recombinant STAT3 protein (STAT3 (G127-I722)) (Homo sapiens, UniProt P40763); assay: STAT3 Fluorescence Polarization (FP) Assay; type: binding; details: probe 5-FAM-GpYLPQTV-NH2 2 nM, 45-minute incubation
T2 construct: Recombinant STAT3 protein (STAT3 (G127-I722))
In short: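 In this competition FP format, STAT3 residues G127-I722 (25 nM) and 2 nM 5-FAM-GpYLPQTV-NH2 met test compounds for 45 min at room temperature. IC50 values result from fitting mP signal against log concentration by nonlinear regression.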

[3] = STAT6 (W123-T658) 250 nM, read-out: STAT6 (FP assay IC50 class)
[4] = STAT3 (G127-I722) 25 nM, read-out: STAT3 (FP assay IC50 class)
[5] = STAT6 250 nM, read-out: STAT6 (FP assay IC50)
[6] = STAT3 25 nM, read-out: STAT3 (FP assay IC50)

T2 sequence (P40763 127-722): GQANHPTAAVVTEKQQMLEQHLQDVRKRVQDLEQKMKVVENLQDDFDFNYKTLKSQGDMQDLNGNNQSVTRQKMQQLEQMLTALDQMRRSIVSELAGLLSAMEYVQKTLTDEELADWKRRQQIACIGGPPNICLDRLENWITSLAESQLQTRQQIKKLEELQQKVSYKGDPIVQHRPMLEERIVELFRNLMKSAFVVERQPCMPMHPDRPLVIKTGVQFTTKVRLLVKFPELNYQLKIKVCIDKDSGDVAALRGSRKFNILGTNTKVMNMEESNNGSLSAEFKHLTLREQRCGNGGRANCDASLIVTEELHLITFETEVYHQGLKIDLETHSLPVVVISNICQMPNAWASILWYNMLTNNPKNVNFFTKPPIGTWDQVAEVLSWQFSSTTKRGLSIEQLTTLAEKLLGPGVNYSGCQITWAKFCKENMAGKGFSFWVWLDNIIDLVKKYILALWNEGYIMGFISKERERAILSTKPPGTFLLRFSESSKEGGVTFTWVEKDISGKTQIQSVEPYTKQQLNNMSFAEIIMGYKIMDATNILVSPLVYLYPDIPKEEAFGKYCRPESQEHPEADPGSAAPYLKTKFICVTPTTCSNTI

SMILES | IC50 [1, 3] [µM] | IC50 [2, 4] [µM] | IC50 [1, 5] [µM] | IC50 [2, 6] [µM]
Cc1cccnc1N1C[C@H](NC(=O)[C@@H]2CC[C@@H]3CCCC[C@H](NC(=O)c4cc5cc(C(F)P(=O)(O)O)ccc5s4)C(=O)N32)[C@@H](F)C1 (stereo partly drawn) [Compound 555, (fluoro(2-(((3S,6S,10aS)-3-(((3S,4S)-4-fluoro-1-(3-methylpyridin-2-yl)pyrrolidin-3-yl)carbamoyl)-5-oxodecahydropyrrolo[1,2-a]azocin-6-yl)carbamoyl)benzo[b]thiophen-5-yl)methyl)phosphonic acid] | 3 to 30 | 0.1 to 1 |  | 
O=C(N[C@H]1CCC[C@H]2CC[C@@H](C(=O)N3CC(c4cnccc4OCc4ccncc4)C3)N2C1=O)c1cc2cc(C(F)P(=O)(O)O)ccc2s1 (stereo partly drawn) [Compound 705, (fluoro(2-(((3S,6S,9aS)-5-oxo-3-(3-(4-(pyridin-4-ylmethoxy)pyridin-3-yl)azetidine-1-carbonyl)octahydro-1H-pyrrolo[1,2-a]azepin-6-yl)carbamoyl)benzo [b]thiophen-5-yl)methyl) phosphonic acid] | 3 to 30 | < 0.1 |  | 
O=C(N[C@H]1CCCC[C@H]2CC[C@@H](C(=O)N3CCC(c4cccnc4)CC3)N2C1=O)c1cc2cc(C(F)P(=O)(O)O)ccc2s1 (stereo partly drawn) [Compound 564, (fluoro(2-(((3S,6S,10aS)-5-oxo-3-(4-(pyridin-3-yl)piperidine-1-carbonyl)decahydropyrrolo[1,2-a]azocin-6-yl)carbamoyl)benzo[b]thiophen-5-yl)methyl)phosphonic acid] | 3 to 30 | 0.1 to 1 |  | 
C[C@@H]1C[C@H]2CC[C@@H](C(=O)N3CC(c4cnccc4N(C)C)C3)N2C(=O)[C@@H](NC(=O)c2cc3cc(CP(=O)(O)O)ccc3s2)C1 [Compound 639, ((2-(((3S,6S,8S,9aR)-3-(3-(4-(dimethylamino)pyridin-3-yl)azetidine-1-carbonyl)-8-methyl-5-oxooctahydro-1H-pyrrolo[1,2-a]azepin-6-yl)carbamoyl)benzo [b]thiophen-5-yl)methyl) phosphonic acid] | 3 to 30 | < 0.1 |  | 
O=C(N[C@H]1CCC[C@H]2CC[C@@H](C(=O)Nc3ccc(-c4ccccc4)cc3)N2C1=O)c1cc2cc(C(F)(F)P(=O)(O)O)ccc2s1 [Compound 121, ((2-(((3S,6S,9aS)-3-([1,1′-biphenyl]-4-ylcarbamoyl)-5-oxooctahydro-1H-pyrrolo[1,2-a]azepin-6-yl)carbamoyl)benzo[b]thiophen-5-yl)difluoromethyl) phosphonic acid] |  |  | 0.3 to 3 | 0.1 to 1
O=C(N[C@H]1CCCC[C@H]2CC[C@@H](C(=O)N[C@H]3CN(C(=O)OC4CC4)C[C@@H]3F)N2C1=O)c1cc2cc(C(F)P(=O)(O)O)ccc2s1 (stereo partly drawn) [Compound 554, ((2-(((3S,6S,10aS)-3-(((3S,4S)-1-(cyclopropoxycarbonyl)-4-fluoropyrrolidin-3-yl)carbamoyl)-5-oxodecahydropyrrolo[1,2-a]azocin-6-yl)carbamoyl)benzo[b]thiophen-5-yl)fluoromethyl)phosphonic acid] | 0.3 to 3 | 1 to 10 |  | 
N#Cc1cccc(C2CN(C(=O)[C@@H]3CC[C@@H]4CCC[C@H](NC(=O)c5cc6cc(C(F)(F)P(=O)(O)O)ccc6s5)C(=O)N43)C2)n1 [Compound 811, ((2-(((3S,6S,9aS)-3-(3-(6-cyanopyridin-2-yl)azetidine-1-carbonyl)-5-oxooctahydro-1H-pyrrolo[1,2-a]azepin-6-yl)carbamoyl)benzo [b]thiophen-5-yl)difluoromethyl) phosphonic acid] | 0.3 to 3 | < 0.1 |  | 
N#C[C@H]1CN(C(=O)[C@@H]2CC[C@@H]3CC[C@@H](N4CCC4)C[C@H](NC(=O)c4cc5cc(C(F)(F)P(=O)(O)O)ccc5s4)C(=O)N32)C[C@@H]1c1ccccc1 (mixture of isomers) [Compound 23, ((2-(((3S,6S,8R,10aS)-8-(azetidin-1-yl)-3-(rel- trans)-3-cyano-4-phenylpyrrolidine-1-carbonyl)-5-oxodecahydropyrrolo [1,2-a]azocin-6-yl)carbamoyl)benzo[b]thiophen-5-yl)difluoromethyl) phosphonic acid] |  |  | 0.3 to 3 | 1 to 10
O=C(N[C@H]1CCCC[C@H]2CC[C@@H](C(=O)N3CC4(CC(=O)c5nccn54)C3)N2C1=O)c1cc2cc(C(F)(F)P(=O)(O)O)ccc2s1 [Compound 774, (difluoro(2-(((3S,6S,10aS)-5-oxo-3-(7′-oxo-6′,7′-dihydrospiro[azetidine-3,5′-pyrrolo[1,2-a]imidazole]-1-carbonyl)decahydropyrrolo[1,2-a]azocin-6-yl)carbamoyl)benzo [b]thiophen-5-yl)methyl) phosphonic acid] | 3 to 30 | < 0.1 |  | 
O=C(N[C@H]1CCCC[C@H]2CC[C@@H](C(=O)N3Cc4ccncc4C3)N2C1=O)c1cc2cc(C(F)(F)P(=O)(O)O)ccc2s1 [Compound 789, ((2-(((3S,6S,10aS)-3-(2,3-dihydro-1H-pyrrolo[3,4-c]pyridine-2-carbonyl)-5-oxodecahydropyrrolo [1,2-a]azocin-6-yl)carbamoyl)benzo [b]thiophen-5-yl)difluoromethyl) phosphonic acid] | 0.3 to 3 | 0.1 to 1 |  | 
N#C[C@@H]1CN(C(=O)[C@@H]2CC[C@@H]3CCC[C@H](NC(=O)c4cc5cc(C(F)P(=O)(O)O)ccc5s4)C(=O)N32)C[C@H]1c1ccccc1 (single isomer, unassigned) [Compound 232] | 0.3 to 3 | 1 to 10 |  | 
O=C(N[C@H]1CCC[C@H]2CC[C@@H](C(=O)N3CC(c4cnccc4F)C3)N2C1=O)c1cc2cc([C@H](F)P(=O)(O)O)ccc2s1 (single isomer, unassigned) [Compound 600] | 0.3 to 3 | < 0.1 |  | 
N#C[C@H]1CN(C(=O)[C@@H]2CC[C@@H]3CC[C@H](O)C[C@H](NC(=O)c4cc5cc(C(F)(F)P(=O)(O)O)ccc5s4)C(=O)N32)C[C@@H]1c1ccccc1 [Compound 12, ((2-(((3S,6S,8S,10aR)-3-((3R,4S)-3-cyano-4-phenylpyrrolidine-1-carbonyl)-8-hydroxy-5-oxodecahydropyrrolo [1,2-a]azocin-6-yl)carbamoyl)benzo[b]thiophen-5-yl)difluoromethyl) phosphonic acid] |  |  | ≤ 0.3 | 1 to 10
N#C[C@@H]1CN(C(=O)[C@@H]2CC[C@@H]3CCC[C@H](NC(=O)c4cc5cc(C(F)(F)P(=O)(O)O)ccc5s4)C(=O)N32)C[C@H]1c1ccccc1 (relative stereo) [Compound 96, ((2-(((3S,6S,9aS)-3-(rel-(trans)-3-cyano-4-phenylpyrrolidine-1-carbonyl)-5-oxooctahydro-1H-pyrrolo [1,2-a]azepin-6-yl)carbamoyl)benzo[b]thiophen-5-yl)difluoromethyl) phosphonic acid] |  |  | ≤ 0.3 | 0.1 to 1
COC1(c2cccnc2)CN(C(=O)[C@@H]2CC[C@@H]3CCC[C@H](NC(=O)c4cc5cc(C(F)(F)P(=O)(O)O)ccc5s4)C(=O)N32)C1 [Compound 498, (difluoro(2-(((3S,6S,9aS)-3-(3-methoxy-3-(pyridin-3-yl)azetidine-1-carbonyl)-5-oxooctahydro-1H-pyrrolo[1,2-a]azepin-6-yl)carbamoyl)benzo[b]thiophen-5-yl)methyl)phosphonic acid] | 0.3 to 3 | < 0.1 |  | 
O=C(N[C@H]1CCCC[C@H]2CC[C@@H](C(=O)N3CCC(c4ccccc4F)C3)N2C1=O)c1cc2cc(C(F)P(=O)(O)O)ccc2s1 (stereo partly drawn) [Compound 563, (fluoro(2-(((3S,6S,10aS)-3-(3-(2-fluorophenyl)pyrrolidine-1-carbonyl)-5-oxodecahydropyrrolo[1,2-a]azocin-6-yl)carbamoyl)benzo[b]thiophen-5-yl)methyl)phosphonic acid] | 0.3 to 3 | 1 to 10 |  | 
CN(C(=O)[C@@H]1CC[C@@H]2CCCC[C@H](NC(=O)c3cc4cc(C(F)(F)P(=O)(O)O)ccc4[nH]3)C(=O)N21)c1ccccc1 [Compound 1, (difluoro(2-(((3S,6S,10aS)-3-(methyl(phenyl)carbamoyl)-5-oxodecahydropyrrolo[1,2-a]azocin-6-yl)carbamoyl)-1H-indol-5-yl)methyl)phosphonic acid] |  |  | 0.3 to 3 | > 10
